Results reported in PMC9607343, “Synthesis, Conformational Analysis and Evaluation of the 2-aryl-4-(4-bromo-2-hydroxyphenyl)benzo[1,5]thiazepines as Potential α-Glucosidase and/or α-Amylase Inhibitors” (Molecules, 2022).

What was measured:
α-amylase = assay: In vitro α-amylase inhibitory assay (CNP-G3 substrate); assay type: biochemical; conditions: three independent experiments; acarbose positive control; read-out: IC50 Values (µM ± SD) α-Amylase
Procedure: (§1) The IC50 values (μM) represented in Table 3 were calculated from the log dose-inhibition curves and are expressed as means ± standard deviations (SD) of three independent experiments. […] Inhibitors of α-glucosidase with mild inhibitory activity against α-amylase, on the other hand, constitute one of the major therapeutic strategies for the treatment of T2DM.
The α-amylase inhibitory assay was performed in 96-well microplates using a final volume of 200 μL, following a procedure described in the literature study. The enzyme assay was performed with a phosphate buffer ([…]) containing 0.02% NaN3 and adjusted to pH 6.0 with 2.0 M phosphoric acid. […] The enzyme solution (2.0 u/mL α-amylase, 5 µL); phosphate buffer ([…], pH 6.0; 175 µL); and 10 µL test sample were incubated at 37 °C for 10 min. After pre-incubation, 10 µL of 10 mM of 2-chloro-4-nitrophenyl-α-D-maltotrioside (CNP-G3) was added to each of the wells containing reaction mixtures to initiate the reaction. The absorbance was measured at 405 nm using a Bio-Rad microplate reader. The IC50 values were calculated using the AAT Bioquest online calculator.

α-glucosidase = assay: In vitro α-glucosidase inhibitory assay (PNP-G substrate); assay type: biochemical; conditions: for IC50: three independent experiments, acarbose positive control, read-out: IC50 Values (µM ± SD) α-Glucosidase; for SI (selectivity index): SI = IC50(α-glucosidase)/IC50(α-amylase)
Procedure: as §1
All the tests and analyses were performed in triplicates following a literature method described in our previous study. The stock solutions of the test compounds (200 µM) were prepared in DMSO, followed by dilution with a 100 mM phosphate buffer to obtain the concentrations of 100 µM. […] The enzyme solution (0.48 u/mL α-glucosidase, 17 µL); phosphate buffer (100 mM, pH 6.8; 50 µL); and test sample in DMSO (17 µL) were incubated at 37 °C for 10 min. After pre-incubation, 17 µL of 2 mM p-nitrophenyl-α-d-glucopyranoside (PNP-G) was added to each of the wells containing reaction mixtures to initiate the reaction. The absorbance was measured at 405 nm using a Bio-Rad microplate reader. The IC50 concentration was calculated using the AAT Bioquest online calculator.

| Structure (SMILES) | melting point | IC50 (α-amylase) | IC50 (α-glucosidase) | SI (selectivity index) (α-glucosidase) |
| --- | --- | --- | --- | --- |
| Oc1ccc(Br)cc1C1=Nc2ccccc2SC(c2ccccc2)C1 (centres unmarked) [Compound 2a, 4-Bromo-2-((E)-2,3-dihydro-2-phenylbenzo[b][1,5]thiazepine-4-yl)phenol] | 128 to 137 °C | 20.87 ± 0.08 µM | 6.7 ± 0.15 µM | – |
| Oc1ccc(Br)cc1C1=Nc2ccccc2SC(c2ccc(F)cc2)C1 (centres unmarked) [Compound 2b, 4-Bromo-2-((E)-2,3-dihydro-2-(4-fluorophenyl)benzo[b][1,5]thiazepine-4-yl)phenol] | 128 to 134 °C | 15.85 ± 0.05 µM | 17.2 ± 0.07 µM | 1.09 |
| Oc1ccc(Br)cc1C1=Nc2ccccc2SC(c2ccc(Cl)cc2)C1 (centres unmarked) [Compound 2c, 4-Bromo-2-((E)-2,3-dihydro-2-(4-chlorophenyl)benzo[b][1,5]thiazepine-4-yl)phenol] | 167 to 172 °C | 22.86 ± 0.04 µM | 2.69 ± 0.27 µM | 0.12 |
| COc1cccc(C2CC(c3cc(Br)ccc3O)=Nc3ccccc3S2)c1 (centres unmarked) [Compound 2d, 4-Bromo-2-((E)-2,3-dihydro-2-(3-methoxyphenyl)benzo[b][1,5]thiazepine-4-yl)phenol] | 161 to 167 °C | 46.16 ± 0.31 µM | 13.2 ± 1 µM | 0.29 |
| COc1ccc(C2CC(c3cc(Br)ccc3O)=Nc3ccccc3S2)cc1 (centres unmarked) [Compound 2e, 4-Bromo-2-((E)-2,3-dihydro-2-(4-methoxyphenyl)benzo[b][1,5]thiazepine-4-yl)phenol] | 131 to 136 °C | 55.14 ± 0.19 µM | 15.87 ± 0.13 µM | 0.29 |
| CC(C)c1ccc(C2CC(c3cc(Br)ccc3O)=Nc3ccccc3S2)cc1 (centres unmarked) [Compound 2f, 4-Bromo-2-((E)-2,3-dihydro-2-(4-isopropylphenyl)benzo[b][1,5]thiazepine-4-yl)phenol] | 126 to 131 °C | 9.71 ± 0.5 µM | 6.54 ± 0.11 µM | 0.67 |
